In PubChem BioAssay (NCI):
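Results reflect a 48-hour exposure of cells in 96-well plates to compound at five concentrations. TGI: total growth inhibition.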

Legend:
Assay in all cases: growth of human tumour cells (NCI), 48 h
ACHN renal = test system: ACHN renal
CCRF-CEM leukemia = test system: CCRF-CEM leukemia
COLO 205 colon = test system: COLO 205 colon
DU-145 prostate = test system: DU-145 prostate
HL-60(TB) leukemia = test system: HL-60(TB) leukemia
HS 578T breast = test system: HS 578T breast
K-562 leukemia = test system: K-562 leukemia
MALME-3M melanoma = test system: MALME-3M melanoma
MDA-MB-435 = test system: MDA-MB-435
MDA-N = test system: MDA-N
OVCAR-5 ovarian = test system: OVCAR-5 ovarian
SF-295 CNS = test system: SF-295 CNS
SF-539 CNS = test system: SF-539 CNS
SK-MEL-2 melanoma = test system: SK-MEL-2 melanoma
SNB-19 CNS = test system: SNB-19 CNS
T-47D breast = test system: T-47D breast
UO-31 renal = test system: UO-31 renal

Row | SMILES | TGI (ACHN renal) [µM] | TGI (CCRF-CEM leukemia) [µM] | TGI (COLO 205 colon) [µM] | TGI (DU-145 prostate) [µM] | TGI (HL-60(TB) leukemia) [µM] | TGI (HS 578T breast) [µM] | TGI (K-562 leukemia) [µM] | TGI (MALME-3M melanoma) [µM] | TGI (MDA-MB-435) [µM] | TGI (MDA-N) [µM] | TGI (OVCAR-5 ovarian) [µM] | TGI (SF-295 CNS) [µM] | TGI (SF-539 CNS) [µM] | TGI (SK-MEL-2 melanoma) [µM] | TGI (SNB-19 CNS) [µM] | TGI (T-47D breast) [µM] | TGI (UO-31 renal) [µM]
1 | CN1CCCC1=NC#N | > 100 | > 100 | > 100 | > 100 | > 100 | > 100 | > 100 | > 100 | > 100 | > 100 | > 100 | > 100 | > 100 | > 100 | > 100 | > 100 | > 100
2 | CC(C)(C)CC(C)(C)N=C(N)NO | 23.4 | > 100 | > 100 | > 100 | > 100 | > 100 | > 100 | > 100 | > 100 | > 100 | > 100 | > 100 | > 100 | > 100 | > 100 | > 100 | > 80.2
3 | Cc1c2cccc-2ccc2c1[nH]c1ccc(Br)cc12 | 24.4 | 90.9 | 4.33 | 22.9 | > 100 | 94.3 | 11.8 | 21.5 | 16.7 | 18.8 | 16.7 | 15.7 | 19.1 | 17.9 | 23.8 | 4.01 | 18.6
4 | S=C(N/N=C(/c1ccccc1)c1ccccn1)Nc1ccc(Cl)cc1 | 9.01 | 2.26 | 18.2 | 11.6 | 0.543 | > 78.2 | 0.581 | 10.6 | 10.2 | 9.57 | 6.2 | 11.3 | 8.55 | 4.91 | 20.7 | 2.89 | 9.37
5 | CC1(c2nc3ccccc3[nH]2)CCC(C(N)=O)C(C)(C)O1 (stereo not drawn) | > 100 | > 100 | > 100 | > 100 | > 100 | > 100 | > 100 | > 100 | > 100 | > 100 | > 100 | > 100 | > 100 | > 100 | > 100 | > 100 | > 100
6 | Nc1nc(Cl)cc(NCC2(CO)CCC(O)C2)n1 (stereo not drawn) | > 100 | > 100 | > 100 | > 100 | > 100 | > 100 | > 100 | > 100 | > 100 | > 100 | > 100 | > 100 | > 100 | > 100 | > 100 | > 100 | > 100
7 | N#Cc1c(N)c2c(c(-c3ccccc3)c1-c1ccccc1)C(=O)N(NC(=O)c1ccccc1)C2=O | > 100 | > 100 | > 100 | > 100 | > 100 | > 100 | > 100 | > 100 | > 100 | > 100 | > 100 | > 100 | > 100 | > 100 | > 100 | > 100 | > 100
8 | O=C1c2cscc2C(=O)C1(O)O | > 100 | 52.9 | 36.7 | > 100 | 72.5 | > 100 | > 100 | 54.8 | 99.7 | > 100 | > 100 | > 100 | > 100 | > 100 | > 100 | 37.5 | 49.1
9 | CC1=C(C#N)C2C(=C(N)Oc3ccccc32)C(N)=N1 (stereo not drawn) | 81.8 | > 100 | 67 | 60.9 | > 100 | 72.1 | 90.8 | 35.5 | > 100 | > 100 | 91.6 | > 100 | 61.3 | > 100 | 56.3 | 78.2 | 41.2
